Laboratory results taken from PMC4399838, “Antipsychotic-Like Effect of the Muscarinic Acetylcholine Receptor Agonist BuTAC in Non-Human Primates” (PLoS ONE, 2015).

Tests used:
[1] = biological target: T1, human M5 muscarinic receptor (Homo sapiens, UniProt P08912); design: method as in Watt et al. 2013 [10]; details: ref Watt et al. 2013 [10], cited from earlier work
T1 construct: purchased PerkinElmer Life and Analytical Sciences, Boston, MA
T1 sequence (P08912 1-532): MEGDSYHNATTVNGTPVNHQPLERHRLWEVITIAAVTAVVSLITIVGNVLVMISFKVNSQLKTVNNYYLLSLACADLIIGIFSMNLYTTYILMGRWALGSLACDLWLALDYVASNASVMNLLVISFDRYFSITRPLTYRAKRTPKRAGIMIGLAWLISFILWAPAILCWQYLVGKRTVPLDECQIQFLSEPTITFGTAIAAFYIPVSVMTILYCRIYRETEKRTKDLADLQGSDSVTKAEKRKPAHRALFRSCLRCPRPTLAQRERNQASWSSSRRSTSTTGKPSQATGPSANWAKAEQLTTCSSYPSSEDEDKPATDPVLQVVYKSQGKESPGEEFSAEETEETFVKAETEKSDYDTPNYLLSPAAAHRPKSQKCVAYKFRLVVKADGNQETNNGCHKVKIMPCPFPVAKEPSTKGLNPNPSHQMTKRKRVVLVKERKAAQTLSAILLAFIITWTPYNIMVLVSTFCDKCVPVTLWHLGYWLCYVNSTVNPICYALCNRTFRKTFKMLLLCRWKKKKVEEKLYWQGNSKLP

[2] = biological target: T2, human M2 muscarinic receptor (Homo sapiens, UniProt P08172); assay: GTP-γ-[35S] binding, antibody capture SPA (agonist and antagonist mode); format: biochemical
T2 construct: purchased PerkinElmer Life and Analytical Sciences, Boston, MA
T2 sequence (P08172 1-466): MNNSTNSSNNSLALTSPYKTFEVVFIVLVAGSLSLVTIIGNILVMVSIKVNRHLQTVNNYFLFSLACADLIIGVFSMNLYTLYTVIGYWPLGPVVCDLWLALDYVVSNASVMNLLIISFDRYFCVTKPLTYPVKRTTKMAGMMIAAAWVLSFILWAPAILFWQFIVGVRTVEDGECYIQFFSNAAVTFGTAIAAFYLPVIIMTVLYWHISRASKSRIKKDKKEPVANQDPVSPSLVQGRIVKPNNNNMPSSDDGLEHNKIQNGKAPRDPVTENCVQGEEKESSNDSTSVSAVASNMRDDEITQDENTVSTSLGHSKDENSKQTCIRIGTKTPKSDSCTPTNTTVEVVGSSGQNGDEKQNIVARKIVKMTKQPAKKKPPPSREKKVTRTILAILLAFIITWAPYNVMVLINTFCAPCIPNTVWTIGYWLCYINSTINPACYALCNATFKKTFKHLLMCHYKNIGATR
Protocol: (§1) The antibody capture scintillation proximity technique previously described by DeLapp et al was used in a 96-well plate to determine GTP-γ-[35S] binding. One hundred μl (20–40 fmol/well) of membrane preparation from CHO cells that stably express the human M1-M5 muscarinic receptors (PerkinElmer Life and Analytical Sciences, Boston, MA) were incubated with varying concentration of test compound (final concentrations from 50pM to 1μM) for 30 min. One μM final concentration of GDP was added to M2 and M4 receptor membranes before incubation. […] (500 pM final concentration; Perkin Elmer Life and Analytical Sciences) was added to each well followed by 30 min of incubation. Then the labelled membranes were solubilized with 0.27% Nonidet P40 for 30 min where after they were incubated with 20 μl (final dilution of 1:400) of the appropriate rabbit polyclonal Gα antibody (Covance, Princeton, NJ) for 60 min. An anti-Gαq/11 antibody was used for the M1-, M3-, and M5 membranes, whereas an anti-Gαi-3 antibody was used for the M2- and M4 membranes (Eli Lilly and Company, Indianapolis, IN). After 60 min of incubation, 50 μl (1.25 mg/well) anti-rabbit scintillation proximity assay (SPA) beads (GE Healthcare, Piscataway, NJ) were added per well where after the plates were incubated for another 3 h. By use of a Wallac MicroBeta TriLux scintillation counter (PerkinElmer), the plates were centrifuged for 10 min at 700 × g and counted for 1 min per well. The incubations took place at room temperature in GTP-binding assay buffer (20 mM Hepes, 100 mm NaCl, 5 mM MgC12, pH 7.4). The data were analyzed by use of nonlinear regression for a sigmoidal concentration response curve (GraphPad Prism v. 4.0). Data were normalized to a full agonist response (100 μM oxotremorine-M). […] The antagonist percent inhibition data were normalized to data generated with an EC90 concentration of acetylcholine. The mean relative EC50, IC50, and %Emax, and pKi values were calculated as a mean of at least three independent experiments±SEM. In order to obtain relevant comparisons between subtypes, the experimental system is routinely calibrated with reference agonists (oxotremorine-M, pilocarpine, MCN-A343) to measure full and partial agonism as well as to ensure that the system is not under- or over-reporting functional efficacies. The radioligand binding assays have earlier been described.

[3] = biological target: T3, human M3 muscarinic receptor (Homo sapiens, UniProt P20309); assay: as above; format: biochemical
T3 construct: purchased PerkinElmer Life and Analytical Sciences, Boston, MA
Protocol: as §1

M4AChR = biological target: T4, M4AChR (Homo sapiens, UniProt P08173); assay: Competitive radioligand binding
T4 sequence (P08173 1-479): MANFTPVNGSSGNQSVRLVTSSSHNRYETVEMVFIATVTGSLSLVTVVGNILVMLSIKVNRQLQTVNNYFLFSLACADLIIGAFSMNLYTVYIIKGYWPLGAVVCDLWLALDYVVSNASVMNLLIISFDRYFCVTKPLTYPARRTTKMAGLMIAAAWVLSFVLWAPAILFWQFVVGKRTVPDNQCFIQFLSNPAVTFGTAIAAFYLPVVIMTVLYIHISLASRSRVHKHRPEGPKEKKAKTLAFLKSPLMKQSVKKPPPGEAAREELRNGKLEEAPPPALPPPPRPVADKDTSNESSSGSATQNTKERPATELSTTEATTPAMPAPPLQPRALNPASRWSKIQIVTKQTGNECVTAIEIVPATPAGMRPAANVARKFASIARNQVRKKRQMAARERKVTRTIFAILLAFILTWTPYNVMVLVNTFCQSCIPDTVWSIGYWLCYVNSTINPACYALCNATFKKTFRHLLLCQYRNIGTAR

[4] = antagonist mode, maximal inhibition of EC90 agonist response
[5] = percentage of maximum 100 μM oxotremorine-M signal

T3 sequence (P20309 whole entry): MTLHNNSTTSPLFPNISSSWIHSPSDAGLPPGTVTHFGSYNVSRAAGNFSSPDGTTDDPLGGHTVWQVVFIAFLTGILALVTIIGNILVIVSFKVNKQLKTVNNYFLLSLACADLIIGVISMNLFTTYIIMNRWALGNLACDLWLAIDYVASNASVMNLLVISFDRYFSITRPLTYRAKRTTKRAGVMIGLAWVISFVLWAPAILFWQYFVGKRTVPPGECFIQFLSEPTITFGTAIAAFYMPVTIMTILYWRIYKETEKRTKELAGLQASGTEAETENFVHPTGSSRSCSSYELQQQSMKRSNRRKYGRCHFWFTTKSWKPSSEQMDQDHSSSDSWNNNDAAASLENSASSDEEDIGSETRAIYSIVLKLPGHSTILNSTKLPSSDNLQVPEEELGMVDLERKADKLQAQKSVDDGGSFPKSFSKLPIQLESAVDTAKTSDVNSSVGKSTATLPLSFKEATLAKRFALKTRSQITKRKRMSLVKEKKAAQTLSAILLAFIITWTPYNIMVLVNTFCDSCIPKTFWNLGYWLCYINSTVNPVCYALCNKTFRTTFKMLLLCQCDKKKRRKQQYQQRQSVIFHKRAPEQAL

Structure (SMILES)	Rel pEC50 ([1]; agonist mode, negative log-transformed) [M]	% Emax ([1]; agonist mode) [%]	Rel pIC50 ([1]; antagonist mode, negative log-transformed) [M]	% Inhibition ([1]; antagonist mode) [%]	EC50 [2] [nM]	IC50 [2] [nM]	% Inhibition [2, 4] [%]	Emax [2, 5] [%]	EC50 [3] [nM]	IC50 [3] [nM]	% Inhibition [3, 4] [%]	Emax [3, 5] [%]	Ki (M4AChR) [nM]
CCCCSc1nsnc1[C@H]1CN2CCC[C@H]1C2 [BuTAC, (5R,6R)-6-(3-butylthio-1,2,5-thiadiazol-4-yl)-1-azabicyclo[3.2.1]octane]	7.63 ± 7.41	10.77 ± 10.87	8.29 ± 8.16	96.31 ± 3.87	–	–	–	–	–	–	–	–	–
CCCSc1nsnc1[C@H]1CN2CCC[C@H]1C2 [PTAC, (5R,6R) 6-(3-propylthio-1,2,5-thiadiazol-4-yl)-1-azabicyclo-[3.2.1]-octane]	–	–	–	–	0.501	3.47	16.8 ± 5.49	68.5 ± 5.23	1.95	20.4	90.45 ± 3.52	11.9 ± 3.07	0.282
